In patent US20180177778A1, “Methods for Treating HCV” (priority 2015, published 2018):

How the values were obtained:
[1] = Effect of food on bioavailability of co-formulated tablets, healthy Japanese subjects (Example 20); type: in vivo, human; details: for Tmax: both sexes, mean Tmax
From the text: Japanese male and female volunteers 20 to 55 years of age in general good health with a body mass index ≥18.5 and <25 kg/m^2 were eligible to enroll. Subjects who had positive test results for hepatitis A, B, or C, or for HIV infection, and subjects who were using known inhibitors or inducers of CYP3A isozyme or organic anion transporting polypeptide 1B1 (OATP1B1) inhibitors were excluded from participation. Subjects were not to have consumed alcohol, grapefruit, star fruit, or Seville oranges within 72 hours, or to have used nicotine-containing products within 6 months before study drug administration.
This was a 2-sequence 2-period crossover study. A single dose of two ombitasvir/paritaprevir/ritonavir 12.5/75/50 mg coformulated tablets (total dose of 25/150/100 mg) was administered in the morning on Study Day 1 of each period as follows:
PK parameters for ombitasvir, paritaprevir, and ritonavir were estimated by noncompartmental methods using Phoenix WinNonlin, version 6.3 (Pharsight, A Certara® Company, St. Louis, Mo.) including maximum plasma concentration (Cmax), time to Cmax (Tmax), area under the plasma concentration-time curve (AUC), and terminal-phase elimination half-life (t1/2). The effect of food on the bioavailability of ombitasvir, paritaprevir, and ritonavir was assessed using a repeated measures analysis of natural logarithms of Cmax and AUC values. Point estimates of central value ratios and their 90% confidence intervals (CIs) for Cmax and AUC were calculated to quantify the magnitude of food effect. Statistical analyses were conducted using SAS, version 9.2 (SAS Institute, Inc., Cary, N.C.).

[2] = Population pharmacokinetics in HCV GT1 subjects with CKD Stage 4 or 5 (Example 17); type: in vivo, human; details: vs subjects without kidney disease
Protocol: Pharmacokinetic data from a Phase 2 study (N=38) in subjects with normal or mild renal impairment (subjects “without kidney disease”) were combined with preliminary data from a Phase 3b study in subjects with CKD Stage 4 (N=5) or Stage 5 on hemodialysis (N=14). In both studies subjects received OBV/PTV/r 25/150/100 mg QD and DSV 250 mg BID±RBV for 12 weeks. Pharmacokinetic parameters and steady-state exposures of the 3-DAA regimen were estimated using population pharmacokinetic models.

[3] = human, in vivo
Protocol: All subjects received ombitasvir/paritaprevir/ritonavir 25/150/100 mg QD and dasabuvir 250 mg BID±weight based RBV. DAAs (OBV, PTV, or DSV) and RTV AUC values were available from 2093 subjects and RBV AUC values were available from 1584 subjects. The dataset included subjects with normal renal function (NF) (CrCl ≥90 mL/min, n=1495), mild renal impairment (RI) (CrCL 60-89 mL/min, n=576) and moderate RI (CrCL 30-59 mL/min, n=22). […] CrCL was retained in the models, regardless of its statistical significance, to determine the effect, if any, on the AUC values.

[4] = in vivo; cited from earlier work

| Tmax ([1]; human, in vivo) [h] | increase of mean AUC ([1]; both, human, in vivo) [%] | mean Tmax ([1]; both, human, in vivo) [h] | exposures lower in CKD Stage 5 [2] | Molecule | exposures higher in CKD Stage 4 subjects [2] | also measured |
| --- | --- | --- | --- | --- | --- | --- |
| 4.2 | 228 | 5.2 |  | Cc1cnc(C(=O)N[C@H]2CCCCC/C=C\[C@@H]3C[C@@]3(C(=O)NS(=O)(=O)C3CC3)NC(=O)[C@@H]3C[C@@H](Oc4nc5ccccc5c5ccccc45)CN3C2=O)cn1 [Compound 1, (2R,6S,13aS,14aR,16aS,Z)—N-(cyclopropylsulfonyl)-6-(5-methylpyrazine-2-carboxamido)-5,16-dioxo-2-(phenanthridin-6-yloxy)-1,2,3,5,6,7,8,9,10,11,13a,14,14a,15,16,16a-hexadecahydrocyclopropa[e]pyrrolo[1,2-a][1,4]diazacyclopentadecine-14a-carboxamide] |  |  |
|  |  |  | ~37% | COc1c(-c2ccc3cc(NS(C)(=O)=O)ccc3c2)cc(-n2ccc(=O)[nH]c2=O)cc1C(C)(C)C [Compound 3, N-(6-(3-tert-butyl-5-(2,4-dioxo-3,4-dihydropyrimidin-1(2H)-yl)-2-methoxyphenyl)naphthalen-2-yl)methanesulfonamide] |  |  |
|  |  |  |  | NC(=O)c1ncn([C@@H]2O[C@H](CO)[C@@H](O)[C@H]2O)n1 [Ribavirin, ribavirin] |  | AUC values higher in mild/moderate RI compared to NF [3]: up to 17%; absolute bioavailability [4]: approximately 50% |
| 3.4 | 34 | 4.9 | about 33% | CC(C)c1nc(CN(C)C(=O)N[C@H](C(=O)N[C@@H](Cc2ccccc2)C[C@H](O)[C@H](Cc2ccccc2)NC(=O)OCc2cncs2)C(C)C)cs1 [ritonavir, reference compound] | ~200% |  |
|  |  |  |  | dimethyl (2S,2′S)-1,1′-((2S,2′S)-2,2′-(4,4′-((2S,5S)-1-(4-tert-butylphenyl)pyrrolidine-2,5,diyl)bis(4,1-phenylene))bis(azanediyl)bis(oxomethylene)bis(pyrrolidine-2,1-diyl)bis(3-methyl-1-oxobutane-2,1-diyl)dicarbamate [Compound 2] | about 80% | mean Tmax ([1]; fasting conditions, single dose 25/150/100 mg): 4.4 h; increase of mean AUC ([1]; high fat meal relative to fasting, Japanese subjects): 73%; mean Tmax ([1]; with a high fat meal, single dose 25/150/100 mg): 5.3 h |
